Where two headings read alike, the source gives them in different places.
Tests used:
human 5-HT1F receptor = target: T1, human 5-HT1F receptor (Homo sapiens, UniProt P30939); test: Activating effect on human 5-HT1F receptor transfected CHO-K1 cells (HitHunter cAMP detection kit); assay type: cell-based
T1 construct: expressed in transfected cells; host or cells: CHO-K1
T1 sequence (P30939 1-366): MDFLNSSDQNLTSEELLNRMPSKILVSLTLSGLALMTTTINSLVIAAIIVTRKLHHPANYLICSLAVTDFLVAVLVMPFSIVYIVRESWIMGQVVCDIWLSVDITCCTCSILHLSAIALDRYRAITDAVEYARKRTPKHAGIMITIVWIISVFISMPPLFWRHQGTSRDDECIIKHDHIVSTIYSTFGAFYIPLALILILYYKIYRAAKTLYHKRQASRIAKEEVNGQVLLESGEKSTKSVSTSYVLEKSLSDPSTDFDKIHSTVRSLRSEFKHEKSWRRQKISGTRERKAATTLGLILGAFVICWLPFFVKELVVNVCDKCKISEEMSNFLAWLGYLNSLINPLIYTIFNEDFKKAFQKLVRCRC
Protocol: Experimental purposes: To evaluate the activating effect of the compound on CHO-K1 cells transfected human 5-HT1F receptor by using HitHunter cAMP detection kit.
Experimental brief process: CHO-K1 cells were cultured in a 384 microporous plate. The volume of cell culture medium (Assay Complete™ Cell Plating Reagent, DIscoverX) was 20 μL and the cell density was 10,000/well. The cells were cultured overnight at 37° C. and 5% CO2. Then the culture medium was removed, and 15 μL of cAMP Assay Buffer (DIscoverX) was added into each well, and then 5 μL of test sample containing 4× sample (test compound or 5-HT) and 4× forskolin (final concentration of forskolin is 15 μM) was added. The microporous plate was placed at 37° C. for 30 minutes. Then 5 μL of cAMP Antibody Reagent (DiscoverX) and 20 μL of cAMP Working Detection Solution (DiscoverX) were added and incubated in the dark for 1 hour, and then 20 μL of cAMP Solution A was added and incubated in the dark for 3 hours. The microporous plate was placed in the Perkin Elmer Envision™ to read the intensity of the optical signal. The activation rate was calculated by the intensity of the optical signal obtained from testing the compounds with different concentrations ((1−(Y/Z))*100%=the activation rate, wherein, Y represents the intensity of the optical signal adding test sample, and Z represents the intensity of the optical signal adding only forskolin). The dose-effect curve of the compounds was calculated by Prism software, and the concentration of the agonist with half maximum response was calculated and expressed by EC50 value. The results were shown in Table A. 5-HT was used as a positive control drug to ensure the normal experimental system in this experiment.

[1] = Pharmacokinetic evaluation after intravenous or gavage administration to dogs; assay type: in vivo, Beagle dogs
Protocol: (§1) The inventors had evaluated the pharmacokinetics of the compounds of the invention in rats and dogs. Wherein animal information was detailed in Table 1.
(§2) The compound was administered to the animal subjects in the form of 5% DMSO+60% PEG400+35% Saline solution or 10% DMSO+10% Kolliphor HS15+30% PEG400+50% Saline solution. The animals were fasted for 12 hours before administration, but drinking water freely. For the group of intravenous administration, the administration dose is 0.5 mg/kg or 1 mg/kg, and vein blood samples (0.15 mL) were collected at the time points of 0.083, 0.25, 0.5, 1.0, 2.0, 4.0, 6.0, 8.0 and 24 h (dogs) or 0.083, 0.25, 0.5, 1.0, 2.0, 5.0, 7.0 and 24 h (rats) after drug administration. EDTA-K2 as anticoagulant was pre-added into the blood vessel. The plasma solutions were collected by centrifuging each blood sample at 12,000 rpm for 2 minutes and kept at −20° C. or −70° C. For the group of gavage administration, the administration dose is 2.5 mg/kg or 5 mg/kg, and vein blood samples (0.15 mL) were collected at the time points of 0.25, 0.5, 1.0, 2.0, 4.0, 6.0, 8.0 and 24 h (dogs) or 0.25, 0.5, 1.0, 2.0, 5.0, 7.0 and 24 h (rats) after drug administration. EDTA-K2 as anticoagulant was pre-added into the blood vessel. The plasma solutions were collected by centrifuging each blood sample at 12,000 rpm for 2 minutes and kept at −20° C. or −70° C.
(§3) After processing the above plasma sample (the frozen plasma was melted at room temperature and then whirled for 15 seconds. 10 to 20 μL of the plasma was taken out, and whirled with 120 to 150 μL of an acetonitrile solution containing an internal standard for 5 minutes. The mixture was centrifuged for 5 minutes at 4,000 rpm. 100 μL of the supernatant was taken out and mixed with 120 to 150 μL of methanol-water (v/v=1/1)), the concentration of compounds in plasma was analyzed by LC-MS/MS. […] The compound of the invention has better drug properties and better clinical application prospects. Wherein the pharmacokinetic parameters of examples 12 and 19 in rats were detailed in Table B1; the pharmacokinetic parameters of examples 12 and 19 in dogs were detailed in Table B2.

[2] = Pharmacokinetic evaluation after intravenous or gavage administration to rats; assay type: in vivo, SD rats
Protocol: as §1, §2, §3

[3] = CHO-K1 cells, forskolin 15 μM, cAMP, read-out: EC50
[4] = Beagle, dog, in vivo, iv, 0.5 mg/kg
[5] = beagle, dog, in vivo, po, 2.5 mg/kg

Structure (SMILES): CN1CCC(=Cc2cccc(NC(=O)c3ccc(F)cc3F)n2)CC1 [Example 3, 2,4-difluoro-N-(6-((1-methylpiperidin-4-ylidene)methyl)pyridine-2-yl)benzamide]
- EC50 (human 5-HT1F receptor; [3]): 5.9 nM

Structure (SMILES): CN1CCC(=Cc2cccc(NC(=O)c3c(F)cc(F)cc3F)n2)CC1 [Example 5, 2,4,6-trifluoro-N-(6-((1-methylpiperidin-4-ylidene)methyl)pyridine-2-yl)benzamide]
- EC50 (human 5-HT1F receptor; [3]): 1.9 nM

Structure (SMILES): CN1CCC(=C(F)c2cccc(NC(=O)c3ccc(F)cc3F)n2)CC1 [Example 10, 2,4-difluoro-N-(6-(fluoro(1-methylpiperidin-4-ylidene)methyl)pyridine-2-yl)benzamide]
- EC50 (human 5-HT1F receptor; [3]): 3 nM

Structure (SMILES): CN1CCC(=C(F)c2cccc(NC(=O)c3c(F)cc(F)cc3F)n2)CC1 [Example 12, 2,4,6-trifluoro-N-(6-(fluoro(1-methylpiperidin-4-ylidene)methyl)pyridine-2-yl)benzamide]
- AUC(0-inf) ([1]; Beagle, dog, plasma, iv, dogs, i.v group, 1 mg/kg, read-out: AUCINF): 660 ng·h/mL
- AUC(0-t) ([1]; Beagle, dog, plasma, iv, dogs, i.v group, 1 mg/kg, read-out: AUClast): 652 ng·h/mL
- clearance ([1]; Beagle, dog, plasma, iv, dogs, i.v group, 1 mg/kg, read-out: Cl): 25.2 mL/min/kg
- Cmax ([1]; Beagle, dog, plasma, iv, dogs, i.v group, 1 mg/kg, read-out: Cmax): 170 ng/mL
- MRT inf ([1]; Beagle, dog, plasma, iv, dogs, i.v group, 1 mg/kg, read-out: MRTINF): 4.11 h
- half-life ([1]; Beagle, dog, plasma, iv, dogs, i.v group, 1 mg/kg, read-out: T1/2 (converted)): 211 min
- Tmax ([1]; Beagle, dog, plasma, iv, dogs, i.v group, 1 mg/kg, read-out: Tmax): 15 min
- Vd ([1]; Beagle, dog, plasma, iv, dogs, i.v group, 1 mg/kg, read-out: Vss): 6.22 L/kg
- AUC(0-inf) ([1]; Beagle, dog, plasma, po, dogs, i.g group, 5 mg/kg, read-out: AUCINF): 705 ng·h/mL
- AUC(0-t) ([1]; Beagle, dog, plasma, po, dogs, i.g group, 5 mg/kg, read-out: AUClast): 691 ng·h/mL
- Cmax ([1]; Beagle, dog, plasma, po, dogs, i.g group, 5 mg/kg, read-out: Cmax): 82.8 ng/mL
- MRT inf ([1]; Beagle, dog, plasma, po, dogs, i.g group, 5 mg/kg, read-out: MRTINF): 5.98 h
- half-life ([1]; Beagle, dog, plasma, po, dogs, i.g group, 5 mg/kg, read-out: T1/2 (converted)): 257 min
- Tmax ([1]; Beagle, dog, plasma, po, dogs, i.g group, 5 mg/kg, read-out: Tmax): 100 min
- F ([1]; dogs, i.g group, 5 mg/kg): 21.4%
- EC50 (human 5-HT1F receptor): 1.5 nM
- AUC(0-inf) ([2]; SD, rat, plasma, iv, rats, i.v group, 1 mg/kg, read-out: AUCINF): 114 ng·h/mL
- AUC(0-t) ([2]; SD, rat, plasma, iv, rats, i.v group, 1 mg/kg, read-out: AUClast): 111 ng·h/mL
- clearance ([2]; SD, rat, plasma, iv, rats, i.v group, 1 mg/kg, read-out: Cl): 146 mL/min/kg
- Cmax ([2]; SD, rat, plasma, iv, rats, i.v group, 1 mg/kg, read-out: Cmax): 80.5 ng/mL
- MRT inf ([2]; SD, rat, plasma, iv, rats, i.v group, 1 mg/kg, read-out: MRTINF): 1.66 h
- half-life ([2]; SD, rat, plasma, iv, rats, i.v group, 1 mg/kg, read-out: T1/2 (converted)): 82.8 min
- Tmax ([2]; SD, rat, plasma, iv, rats, i.v group, 1 mg/kg, read-out: Tmax): 0.083 h
- Vd ([2]; SD, rat, plasma, iv, rats, i.v group, 1 mg/kg, read-out: Vss): 14.6 L/kg
- AUC(0-inf) ([2]; SD, rat, plasma, po, rats, i.g group, 5 mg/kg, read-out: AUCINF): 354 ng·h/mL
- AUC(0-t) ([2]; SD, rat, plasma, po, rats, i.g group, 5 mg/kg, read-out: AUClast): 296 ng·h/mL
- Cmax ([2]; SD, rat, plasma, po, rats, i.g group, 5 mg/kg, read-out: Cmax): 71.8 ng/mL
- MRT inf ([2]; SD, rat, plasma, po, rats, i.g group, 5 mg/kg, read-out: MRTINF): 4.05 h
- half-life ([2]; SD, rat, plasma, po, rats, i.g group, 5 mg/kg, read-out: T1/2 (converted)): 139 min
- Tmax ([2]; SD, rat, plasma, po, rats, i.g group, 5 mg/kg, read-out: Tmax): 2 h
- F ([2]; rats, i.g group, 5 mg/kg): 62%

Structure (SMILES): CCN1CCC(=C(F)c2cccc(NC(=O)c3c(F)cc(F)cc3F)n2)CC1 [Example 19, 2,4,6-trifluoro-N-(6-(fluoro(1-ethylpiperidin-4-ylidene)methyl)pyridin-2-yl)benzamide]
- F ([1]; Beagle, dog, in vivo, 2.5 mg/kg): 12.4%
- AUC(0-inf) [1, 4]: 634 ng·h/mL
- AUC(0-t) [1, 4]: 632 ng·h/mL
- Cmax [1, 4]: 442 ng/mL
- MRT inf [1, 4]: 1.39 h
- Tmax [1, 4]: 4.98 min
- Vd [1, 4]: 1.1 L/kg
- clearance [1, 4]: 13.1 mL/min/kg
- half-life [1, 4]: 63.6 min
- AUC(0-inf) [1, 5]: 392 ng·h/mL
- AUC(0-t) [1, 5]: 356 ng·h/mL
- Cmax [1, 5]: 126 ng/mL
- MRT inf [1, 5]: 3.26 h
- Tmax [1, 5]: 60 min
- half-life [1, 5]: 118 min
- EC50 (human 5-HT1F receptor; [3]): 6.8 nM
- F ([2]; SD, rat, in vivo, 5 mg/kg): 105%
- AUC(0-inf) ([2]; SD, rat, in vivo, iv, 1 mg/kg): 259 ng·h/mL
- AUC(0-t) ([2]; SD, rat, in vivo, iv, 1 mg/kg): 240 ng·h/mL
- Cmax ([2]; SD, rat, in vivo, iv, 1 mg/kg): 67.7 ng/mL
- MRT inf ([2]; SD, rat, in vivo, iv, 1 mg/kg): 2.95 h
- Tmax ([2]; SD, rat, in vivo, iv, 1 mg/kg): 0.5 h
- Vd ([2]; SD, rat, in vivo, iv, 1 mg/kg): 11.4 L/kg
- clearance ([2]; SD, rat, in vivo, iv, 1 mg/kg): 64.4 mL/min/kg
- half-life ([2]; SD, rat, in vivo, iv, 1 mg/kg): 126 min
- AUC(0-inf) ([2]; SD, rat, in vivo, po, 5 mg/kg): 1320 ng·h/mL
- AUC(0-t) ([2]; SD, rat, in vivo, po, 5 mg/kg): 1260 ng·h/mL
- Cmax ([2]; SD, rat, in vivo, po, 5 mg/kg): 169 ng/mL
- MRT inf ([2]; SD, rat, in vivo, po, 5 mg/kg): 5.01 h
- Tmax ([2]; SD, rat, in vivo, po, 5 mg/kg): 3.67 h
- half-life ([2]; SD, rat, in vivo, po, 5 mg/kg): 184 min

— US11858910B2, “Pyridinylmethylenepiperidine derivatives and uses thereof” (SUNSHINE LAKE PHARMA CO., LTD., priority 2018, dated 2024)
